Several values for one entry are separate records, joined by “and”; a condition that tells them apart may be missing. Equal values may be shown once.
Assays:
p-ERK = assay: Striatal p-ERK immunohistochemistry 1 h after single injection; format: in vivo, mouse; details: single injection 20 mg/kg i.p., individual mice
Protocol: Immunohistochemistry was performed as described in Papale et al ([2016]). Briefly, 1 h after blocking in 5% normal goat serum and 0.1% Triton X‐100 solution, free‐floating sections were incubated overnight at 4°C with one of the following primary antibodies: anti‐phospho‐p44/42 MAP kinase (Thr202/Tyr204) (1:200, Cell Signaling Technology #9101), anti‐phospho–Elk‐1 (Ser383) (1:100, Cell Signaling #9181), anti‐phospho‐Kv4.2 (Thr607)‐R (1:100, Santa Cruz sc22254‐R), anti‐phospho‐MSK‐1 (1:100 Cell Signaling Technology #9595), anti‐phospho‐MEK1/2 (Ser218/222) (1:100, sc‐7995 Santa Cruz Biotechnology), c‐Fos (1:100, sc‐52 Santa Cruz Biotechnology), tyrosine Hydroxylase (monoclonal 1:1,000, Sigma Aldrich, Italy) and anti‐DARPP‐32 (H3) (1:100, Santa Cruz Biotechnology, #sc‐271111) overnight at 4°C. Sections were then incubated with biotinylated goat anti‐rabbit IgG (1:200, Vector Laboratories) or biotinylated goat anti‐mouse (1:200, Vector Laboratories) for 2 h. The classic avidin‐peroxidase complex (ABC, Vector, UK) protocol was applied, using 3,3′‐diaminobenzidine (DAB, Sigma) as a chromogen.
For in vivo immunohistochemistry experiments, images were acquired from the dorsal striatum using a Leica DM IRB microscope under a 20× objective. The number of p‐ERK, p‐MSK‐1, p‐ELK, p‐MEK‐1, p‐VG K+, c‐Fos, and DARPP‐32 positive cells was counted in 2–3 consecutive sections per mouse, bilaterally and averaged across the sections using the ImageJ software by a blind investigator to the condition. Estimation of nigral cell loss was assessed by quantifying the number of TH‐immunopositive neurons of the SNc in 360 μm‐spaced sections for each animal.

[1] = system: p-ERK1/2 in DARPP-32+ neurons; assay: p-ERK1/2 in DARPP-32+ iPSC-derived HD MSNs; format: cell-based, human; details: for p-ERK1/2 in DARPP-32+ neurons (Fig 5 panel e): individual replicates
Protocol: The human induced pluripotent stem cell line CS09iHD109‐n1 (herein referred to as Q109N1) was originally generated from a human fibroblast line ND39258 (RRID:CVCL_ZC78) with an expanded HTT allele initially containing 109 pure CAG trinucleotides, and the isogenic control lines used were derived by CRISPR gene‐edit to reduce the CAG repeat length to 20 repeats (Mattis et al, [2015]). IPSCS were cultured on hESC‐qualified Matrigel (Corning) in E8‐Flex medium (Thermo Fisher) and passaged with RelesR (Stem Cell Technologies) according to the manufacturer's instructions. For neural differentiation iPSCS were grown to 70% confluency and then treated with 10 μM Y‐27632 (Tocris) for 1 h before harvesting by dissociation to a single cell suspension using accutase (Sigma). IPSCs were replated onto fresh Matrigel‐coated plates at a split ratio of 1:2, in E8‐Flex medium containing 10 μM Y‐27632. After overnight culture, IPSCs at 80–90% confluency were washed with PBS pH 7.4 (Gibco) and then switched to neural induction medium (Advanced DMEM/F12 (1:1) supplemented with 2 mM GlutamaxTM (Gibco), 2% Neurobrew without vitamin A (Miltenyi), 10 μM SB431542, 1 μM LDN 193189 (both Stem Cell Technologies), and 1.5 μM IWR1 (Tocris)). Medium was changed daily until day 8, when cells were passaged 1:2 by cell dissociation with Accutase for 5 min at 37°C and replated on Matrigel® coated plates in LIA medium containing (Advanced DMEM/F12 (1:1) supplemented with 2 mM GlutamaxTM, 2% Neurobrew without vitamin A, 0.2 μM LDN 193189, 1.5 μM IWR1, and 20 ng/ml Activin A (Peprotech)). At day 16, cells were plated for neuronal differentiation according to (Telezhkin et al, [2016]). […]
Images were acquired using a confocal microscope (Zeiss LSM710) under a 20× objective and analyzed with ImageJ software.

Sequence: GRKKRRQRRRPPQGGGGGEPRRTEGVGPGVPGEVEMVKGQPFDV [RB5, six D-amino acids, acetylated N-terminus]
- p-ERK positive cells in striatum (p-ERK; ERK1+/+ (WT) mice): enhanced pERK and pAcH3 in WT
- p-ERK positive cells in striatum (p-ERK; ERK1-/- mice): not in ERK1 KO mice
- p-ERK positive cells in striatum (p-ERK; 1 h): greatly enhanced striatal ERK phosphorylation
- p-ERK1/2 in DARPP-32+ neurons (Fig 5 panel e) ([1]; CTR iPSC-derived MSNs): 32.3403 and 42.5 and 40 and 34.7652 and 35.2993
- p-ERK1/2 in DARPP-32+ neurons ([1]; HD and isogenic control iPSC-derived MSNs, 50 μM, 30 min): upregulated
- p-ERK1/2 in DARPP-32+ neurons (Fig 5 panel e) ([1]; HD iPSC-derived MSNs): 36.3889 and 24.1289 and 36.2319 and 31.1704 and 41.2043 and 24.6269
